Earlier results in patent CN114917233A, “一种包含核苷类似物的药物组合物及其制备方法和应用” (Suzhou Vigonvita Life Sciences Co Ltd, priority 2022, dated 2022).

Columns and labels:
SARS-CoV-2 [1] = test system: SARS-CoV-2
SARS-CoV-2 [2] = conditions: 5 μM, in vitro

| Structure (SMILES) | inhibition of SARS-CoV-2 replication (in words) (SARS-CoV-2 [1]) | inhibition of virus replication compared with RDV (in words) (SARS-CoV-2 [1]; versus RDV) | oral bioavailability (in words) | replication inhibition rate (SARS-CoV-2 [2]) [%] |
| --- | --- | --- | --- | --- |
| N#C[C@@]1(c2ccc3c(N)ncnn23)O[C@H](CO)[C@@H](O)[C@H]1O [GS-441524] | 具有抑制作用 | 更强的病毒复制抑制作用 | 低 |  |
| CCC(CC)COC(=O)[C@H](C)N[P@](=O)(OC[C@H]1O[C@@](C#N)(c2ccc3c(N)ncnn23)[C@H](O)[C@@H]1O)Oc1ccccc1 [RDV] | 具有抑制作用 |  |  |  |
| CC(C)C(=O)OC[C@H]1O[C@@](C#N)(c2ccc3c(N)ncnn23)[C@H](OC(=O)C(C)C)[C@@H]1OC(=O)C(C)C [式I化合物, (2R,3R,4R,5R)-2-(4-氨基吡咯并[2,1-f][1,2,4]三嗪-7-基)-2-氰基-5-((异丁酰氧基)甲基)四氢呋喃-3,4-二基双(2-甲基丙酸酯)] |  |  |  | 99 |
